Common to all, as to format: in vitro ADME
For one series, the system named is monkey hepatocytes. Nature of the series: Metabolite characterization in monkey hepatocytes. The note with it: monkey hepatocyte 1 h incubates of ETN101; ND:<1.2E+05 peak area. On the procedure: (§1) We mixed 60 μL aliquots of 40 μM ETN101 in incubation medium and an equal volume of human, mouse, rat, dog, or monkey hepatocyte suspension in 96-well plates and incubated for 0 or 1 h in a CO2 incubator at 37 °C. The reactions were quenched by adding 120 µL of ice-cold acetonitrile to each well, and the cell suspension was sonicated for 5 min at 4 °C. Subsequently, centrifugation was carried out at 15,000× g for 10 min at 4 °C. Next, the supernatants were evaporated to dryness using a vacuum concentrator, and residues were re-dissolved in 70 μL of 30% acetonitrile. Each sample (5 μL aliquots) was analyzed using LC–HRMS system.
(§2) For metabolite characterization, a Vanquish HPLC system (Thermo Fisher Scientific, San José, CA, USA) coupled with a Q-Exactive Orbitrap mass spectrometer (Thermo Fisher Scientific Inc., Waltham, MA, USA) was used at Core Research Support Center for Natural Products and Medical Materials at Yeungnam University. […] The eluent from the column was directly injected into the mass spectrometer using a heated electrospray ionization (HESI) source in positive ionization mode. […] The spray voltage was 3.0 kV and the capillary temperature was 320 °C. Full scan MS^1 with a data-dependent MS^2 acquisition mode was applied to obtain MS^1 scan data ranging from m/z 80 to 900, at a resolution of 70,000, whereas data-dependent MS^2 spectra were acquired for the five most abundant peaks per cycle at a resolution of 35,000. The parallel reaction monitoring (PRM) mode was used to obtain the MS^2 spectra of putative metabolites detected at low peak intensities in the data-dependent MS^2 acquisition mode. Data were collected and interpreted using Thermo Scientific Xcalibur™ Software (Thermo Fisher Scientific).

In the next series the test system is mouse hepatocytes. Nature of the series: Metabolite characterization in mouse hepatocytes. Particulars: mouse hepatocyte 1 h incubates of ETN101; ND:<1.2E+05 peak area. As for the experimental part:
as §1, §2

A further series has as its system human hepatocytes. Nature of the series: Metabolite characterization in human hepatocytes. The note with it: human hepatocyte 1 h incubates of ETN101; ND:<1.2E+05 peak area. As for the experimental part: as §1, §2
Another series has as its system rat hepatocytes. Nature of the series: Metabolite characterization in rat hepatocytes. Particulars: rat hepatocyte 1 h incubates of ETN101; ND:<1.2E+05 peak area. As for the experimental part: as §1, §2
The subject of another series is dog hepatocytes. Nature of the series: Metabolite characterization in dog hepatocytes. Particulars: dog hepatocyte 1 h incubates of ETN101; ND:<1.2E+05 peak area. On the procedure:
as §1, §2

Each structure is given as a SMILES string. Where a name gives a salt, the structure may show the parent alone. Some results are limits rather than exact numbers.

The record followed here is publication PMC11356571, “The Comparative Metabolism of a Novel Hepatocellular Carcinoma Therapeutic Agent, 2,3-Diamino-N-(4-(benzo[d]thiazol-2-yl)phenyl)propanamide, in Human and Animal Hepatocytes” (Metabolites, 2024).

`CC(=O)Nc1ccc(-c2nc3ccccc3s2)cc1` [M2, N-Acetyl-CJM-126]: the “Relative peak area (%)” value in the series with monkey hepatocytes is on record as 5.8%; with mouse hepatocytes it was 0.9%; in the series on human hepatocytes, 0.3%; with rat hepatocytes, 5.7%.

On to `Nc1ccc(-c2nc3ccccc3s2)cc1O` [M5, 3′-OH-CJM-126], for which the “Relative peak area (%)” value with monkey hepatocytes is recorded as < 0.1%; in the series on mouse hepatocytes it was < 0.1%; in the series on dog hepatocytes, < 0.1%; with human hepatocytes, 0.1%; in the series with rat hepatocytes, < 0.1%.

Turning to `O=C(O)[C@H]1O[C@@H](Nc2ccc(-c3nc4ccccc4s3)cc2)[C@H](O)[C@@H](O)[C@@H]1O` [M9, CJM-126 glucuronide], the “Relative peak area (%)” value in the series on monkey hepatocytes is recorded as < 0.1%; in the series on mouse hepatocytes, < 0.1%; in the series with dog hepatocytes it was 0.5%; in the series on human hepatocytes it was 0.1%; in the series with rat hepatocytes it was 0.1%.

For the molecule `O=S(=O)(O)Nc1ccc(-c2nc3ccccc3s2)cc1` [M10, CJM-126 sulfate], in the series on rat hepatocytes, the “Relative peak area (%)” value is on record as < 0.1%.
